Results from PubChem BioAssay (NCI).
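Assay format: 96-well plates, 48-hour exposure. GI50 = concentration required for 50% inhibition of growth. Definition used: TGI = concentration required for complete inhibition of growth.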

Experiments:
Test in all cases: DTP human tumour cell line panel, 48 h
[1] = tested on: NCI-H460 lung
[2] = tested on: EKVX NSCLC
[3] = tested on: UACC-62 melanoma
[4] = tested on: SK-MEL-5 melanoma
[5] = tested on: SNB-19 CNS
[6] = tested on: ACHN renal
[7] = tested on: M14 melanoma
[8] = tested on: SW-620 colon
[9] = tested on: SK-MEL-28 melanoma
[10] = tested on: OVCAR-8 ovarian
[11] = tested on: CCRF-CEM leukemia
[12] = tested on: SNB-75 CNS
[13] = tested on: UACC-257 melanoma
[14] = tested on: U251 CNS
[15] = tested on: DU-145 prostate
[16] = tested on: NCI-H23 lung
[17] = tested on: UO-31 renal
[18] = tested on: HCC-2998 colon
[19] = tested on: NCI-H522 lung
[20] = tested on: OVCAR-4 ovarian
[21] = tested on: BT-549 breast
[22] = tested on: 786-0 renal
[23] = tested on: HCT-116 colon
[24] = tested on: OVCAR-5 ovarian
[25] = tested on: PC-3 prostate
[26] = tested on: IGROV1 ovarian
[27] = tested on: MCF7 breast
[28] = tested on: HCT-15 colon
[29] = tested on: COLO 205 colon
[30] = tested on: A498 renal
[31] = tested on: TK-10 renal
[32] = tested on: SN12C renal
[33] = tested on: KM12 colon
[34] = tested on: HOP-62 NSCLC
[35] = tested on: NCI-H226 lung
[36] = tested on: SF-295 CNS
[37] = tested on: SK-OV-3 ovarian
[38] = tested on: LOX IMVI melanoma
[39] = tested on: MDA-MB-231 breast
[40] = tested on: RPMI-8226 leukemia
[41] = tested on: HS 578T breast
[42] = tested on: SF-268 CNS
[43] = tested on: SR leukemia
[44] = tested on: K-562 leukemia
[45] = tested on: MOLT-4 leukemia
[46] = tested on: HT29 colon
[47] = tested on: NCI/ADR-RES ovarian

COC(=O)[C@@H](C)C[C@H](Cc1ccc2ccccc2c1)NC(=O)c1csc([C@@H](C[C@H](C(C)C)N(C)C(=O)[C@@H](NC(=O)[C@H]2CCCCN2C)C(C)C)OC(C)=O)n1 gave a GI50 [1] of 11.8 nM, a TGI [1] greater than 25000 nM and a GI50 [2] of 41.8 nM. The TGI [2] was greater than 25000 nM, the GI50 [3] was 9.95 nM and the TGI [3] was 7780 nM. For the same molecule, the GI50 [4] was 12.2 nM, the TGI [4] was 1420 nM and the GI50 [5] was 15.3 nM. It also gave a TGI [5] greater than 25000 nM, a GI50 [6] of 164 nM and a TGI [6] of 4590 nM. It also gave a GI50 [7] of 12.9 nM, a TGI [7] of 4290 nM and a GI50 [8] of 14.7 nM. The TGI [8] was greater than 25000 nM, the GI50 [9] was 2700 nM and the TGI [9] was 6600 nM. The GI50 [10] was 44.5 nM, the TGI [10] was greater than 25000 nM and the GI50 [11] was 10.3 nM. The TGI [11] was greater than 25000 nM, the GI50 [12] was 5.24 nM and the TGI [12] was greater than 25000 nM. For the same molecule, the GI50 [13] was 4130 nM, the TGI [13] was 9420 nM and the GI50 [14] was 12.8 nM. The TGI [14] was 10700 nM, the GI50 [15] was 9.84 nM and the TGI [15] was greater than 25000 nM. The GI50 [16] was 28.1 nM, the TGI [16] was greater than 25000 nM and the GI50 [17] was 286 nM. For the same molecule, the TGI [17] was 5180 nM, the GI50 [18] was 52.9 nM and the TGI [18] was 21600 nM. The GI50 [19] was 5.61 nM, the TGI [19] was 6030 nM and the GI50 [20] was 129 nM. The TGI [20] was greater than 25000 nM, the GI50 [21] was 13 nM and the TGI [21] was 374 nM. The GI50 [22] was 9.94 nM, the TGI [22] was 5080 nM and the GI50 [23] was 8.65 nM. The TGI [23] was 13000 nM, the GI50 [24] was 62.9 nM and the TGI [24] was greater than 25000 nM. It also gave a GI50 [25] of 10.6 nM, a TGI [25] of 7770 nM and a GI50 [26] of 18.3 nM. It also gave a TGI [26] greater than 25000 nM, a GI50 [27] of 6.99 nM and a TGI [27] of 9210 nM. It also gave a GI50 [28] of 52.2 nM, a TGI [28] greater than 25000 nM and a GI50 [29] of 16 nM. For the same molecule, the TGI [29] was 282 nM, the GI50 [30] was 74.5 nM and the TGI [30] was greater than 25000 nM. It also gave a GI50 [31] of 8800 nM, a TGI [31] greater than 25000 nM and a GI50 [32] of 47 nM. For the same molecule, the TGI [32] was greater than 25000 nM, the GI50 [33] was 11 nM and the TGI [33] was greater than 25000 nM. For the same molecule, the GI50 [34] was 22.1 nM, the TGI [34] was greater than 25000 nM and the GI50 [35] was 7110 nM. The TGI [35] was greater than 25000 nM, the GI50 [36] was 10.7 nM and the TGI [36] was greater than 25000 nM. The GI50 [37] was 48 nM, the TGI [37] was greater than 25000 nM and the GI50 [38] was 13 nM. The TGI [38] was 4780 nM, the GI50 [39] was 20.6 nM and the TGI [39] was 7170 nM. For the same molecule, the GI50 [40] was 9.32 nM, the TGI [40] was 5990 nM and the GI50 [41] was 12.2 nM. It also gave a TGI [41] greater than 25000 nM, a GI50 [42] of 21 nM and a TGI [42] greater than 25000 nM. It also gave a GI50 [43] of 2.5 nM, a TGI [43] of 3570 nM and a GI50 [44] of 7.06 nM. It also gave a TGI [44] of 8760 nM, a GI50 [45] of 11.5 nM and a TGI [45] of 7540 nM. It also gave a GI50 [46] of 8.29 nM, a TGI [46] of 4520 nM and a GI50 [47] of 614 nM. For the same molecule, the TGI [47] was greater than 25000 nM.
